In patent publication US8883963B2 (Cadila Healthcare Limited, priority 2007, dated 2014):
Non-standard residues stand in square brackets, D forms with d. Residues, ends and D or L forms follow the SMILES beside them. ξ: configuration not given here. ξBip(2'-Et-4'-OMe) = CCc1cc(OC)ccc1-c1ccc(CC(N)C(=O)O)cc1; ξhhPhe = NC(CCCc1ccccc1)C(=O)O; ξαMeP = CC1(C(=O)O)CCCN1

Target: T1, human glucagon receptor (Homo sapiens, UniProt P47871)
T1 construct: The full-length cDNA was cloned in pcDNA3.1 (Invitrogen); expressed in transfected cells
T1 sequence (P47871 26-477): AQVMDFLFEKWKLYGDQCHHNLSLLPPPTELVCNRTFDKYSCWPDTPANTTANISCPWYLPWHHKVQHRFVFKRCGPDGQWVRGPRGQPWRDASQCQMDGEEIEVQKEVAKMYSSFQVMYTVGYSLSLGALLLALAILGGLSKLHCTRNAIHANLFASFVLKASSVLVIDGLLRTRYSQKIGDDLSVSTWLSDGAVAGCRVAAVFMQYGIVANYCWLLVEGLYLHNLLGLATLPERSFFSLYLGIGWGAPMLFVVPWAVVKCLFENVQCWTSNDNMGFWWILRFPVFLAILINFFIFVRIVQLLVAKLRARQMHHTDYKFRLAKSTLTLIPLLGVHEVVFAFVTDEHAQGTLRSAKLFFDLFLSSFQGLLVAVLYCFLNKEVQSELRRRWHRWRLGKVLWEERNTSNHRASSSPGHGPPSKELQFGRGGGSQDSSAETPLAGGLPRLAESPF
Assay: In vitro human glucagon antagonist activity (inhibition of cAMP production) in CHO/human glucagon R cells
Assay type: cell-based
Conditions: with saturated concentration of glucagon peptide
Method: The CHO-K1 cells (CRL 9618) were obtained from American Type Culture Collection (Rockville, Md.). CHO cells were grown in Ham's F12 medium containing L-Glutamine (2 mM), HEPES (25 mM), NaHCO3 (1.1 g/L) and supplemented with newborn Calf Serum (NBCS; 10%), Penicillin (50 U/ml (v/v)) and Streptomycin (50 ug/ml (v/v)). Cells were split every 3 days 1:8.
The full-length cDNA was cloned in pcDNA3.1 (Invitrogen). […] Clones expressing the receptor were generated by G418 (800 μg/ml active, Sigma) selection. The stable clones were thereafter maintained at 500 ug/ml (G418). The selected clone was used between passages 9-25 for cAMP assays.
The cells were trypsinized using 2 ml of TPVG (0.25% trypsin, 0.53 mM EDTA, 1.38-mM glucose). The trypsin was inactivated using Ham's F12 medium containing 10% NBCS and the cells were suspended in 2 ml of complete medium. […] The medium was aspirated off from the 12 well plate and the cells were washed once using Ham's F12 (plain). The cells were incubated at 37° C. with 500 ul of Ham's F12+1% BSA+0.125 mM RO-20 for 30 min. […] After the incubation, the medium was removed and cells were washed once with plain Ham's F12. Subsequently, the cells were lysed by adding 500 ul of ice cold 0.1 N HCl to each well and shaking for 30 minutes at 200 rpm. The cells were then scrapped, the lysate was collected in micro centrifuge tubes and centrifuged at 12000 rpm for 10 min to remove the debris. 300 ul of supernatant from each micro-centrifuge tube was then removed into a glass tube and dried under N2 for 30 min, for cAMP estimation. The total cAMP was estimated from the sample according to the manufacturer's protocol using Cyclic AMP immunoassay kit (R&D systems, Minneapolis. MN). The remaining supernatant is used to determine the protein concentration using micro BCA (Sigma). Data is calculated as percent of control (Vehicle: water) and expressed as Mean+SD.

Structure (SMILES)	Human Glucagon receptor antagonistic activity shown as inhibition of cAMP production of Glucagon peptide (1 nM test compound)	Human Glucagon receptor antagonistic activity shown as inhibition of cAMP production of Glucagon peptide (10 nM test compound)	Human Glucagon receptor antagonistic activity shown as inhibition of cAMP production of Glucagon peptide (100 nM test compound)	Human Glucagon receptor antagonistic activity shown as inhibition of cAMP production of Glucagon peptide (1 μM test compound)	Human Glucagon receptor antagonistic activity shown as inhibition of cAMP production of Glucagon peptide (10 μM test compound)
CCc1cc(OC)ccc1-c1ccc(CC(NC(=S)[C@H](CC(=O)O)NC(=O)[C@H](CO)NC(=O)[C@@H](NC(=O)C(C)(Cc2ccccc2F)NC(=O)[C@@H](NC(=O)CNC(=O)[C@H](CCC(N)=O)NC(=O)C(C)(C)NC(=O)[C@H](Cc2c[nH]cn2)NC(=O)OC)[C@@H](C)O)[C@@H](C)O)C(=S)NC(CCCc2ccccc2)C(N)=O)cc1 (single isomer, unassigned) [compound 170]	6 ± 0.05 pmol/ml/μg prt	5 ± 0.04 pmol/ml/μg prt	2 ± 0.16 pmol/ml/μg prt	0 pmol/ml/μg prt	0 pmol/ml/μg prt
CCc1cc(OC)ccc1-c1ccc(CC(CNC(CCCc2ccccc2F)C(N)=O)NC(=O)[C@H](CC(=O)O)NC(=O)[C@H](CO)NC(=O)[C@@H](NC(=O)C(C)(Cc2ccccc2F)NC(=O)[C@@H](NC(=O)CNC(=O)[C@H](CCC(N)=O)NC(=O)C(C)(C)NC(=O)[C@H](Cc2c[nH]cn2)NC(=O)OC)[C@H](C)O)[C@H](C)O)cc1 (single isomer, unassigned) [compound 188]	5 ± 0.04 pmol/ml/μg prt	3 ± 0.15 pmol/ml/μg prt	1 ± 0.15 pmol/ml/μg prt	0 pmol/ml/μg prt	0 pmol/ml/μg prt
CCc1cc(OC)ccc1-c1ccc(CC(NC(=O)[C@H](CC(=O)O)NC(=O)[C@H](CO)NC(=O)[C@@H](NC(=O)[C@H](Cc2ccccc2)NC(=O)[C@@H](NC(=O)CNC(=O)[C@H](CCC(N)=O)NC(=O)C2(C)CCCN2C(=O)[C@@H](N)Cc2c[nH]cn2)[C@@H](C)O)[C@@H](C)O)C(=O)NC(CCCc2ccccc2)C(N)=O)cc1 (some centres unmarked) [compound 9] (H-H[ξαMeP]QGTFTSD[ξBip(2'-Et-4'-OMe)][ξhhPhe]-NH2)	5 ± 0.02 pmol/ml/μg prt	3 ± 0.15 pmol/ml/μg prt	0 pmol/ml/μg prt	0 pmol/ml/μg prt	0 pmol/ml/μg prt
CCc1cc(OC)ccc1-c1ccc(CC(NC(=O)[C@H](CC(=O)O)NC(=O)[C@H](CO)NC(=O)[C@@H](NC(=O)[C@H](Cc2ccccc2)NC(=O)[C@@H](NC(=O)CNC(=O)[C@H](CCC(N)=O)NC(=O)C2(C)CCCN2C(=O)[C@@H](N)Cc2c[nH]cn2)[C@@H](C)O)[C@@H](C)O)C(=O)NC(CCCc2cccc(Cl)c2)C(N)=O)cc1 (single isomer, unassigned) [compound 11]	3 ± 0.04 pmol/ml/μg prt	0 pmol/ml/μg prt	0 pmol/ml/μg prt	0 pmol/ml/μg prt	0 pmol/ml/μg prt
